Consider 17 molecules from US20220064167A1, “IMIDAZO-PYRAZOLE CARBOXAMIDE DERIVATIVES AS ANTICANCER AGENTS AND THE SYNTHESIS THEREOF” (AVIDIN KFT., priority 2018, published 2022).

The subject of data set [1] is mouse mammary carcinoma 4T1. The data set is described as follows: resazurin viability assay, 72 h (Table 1). The format is cell-based. Particulars: 72h incubation, 156 nM-100 μM. The text has this: (§1) In our experiments three different cell lines were used. Cells were purchased from the American Type Culture Collection (ATCC, Manassas, Va., USA). The human breast adenocarcinoma cell line, MCF-7 cells were maintained in Dulbecco's Modified Eagle Medium/Nutrient Mixture F-12 (DMEM/F12) 10% fetal calf serum (FCS, Gibco) and mouse mammary carcinoma 4T1 and human promyelocytic leukemia, HL-60 cells were maintained in Roswell Park Memorial Institute 1640 medium (RPMI-1640) 10% FCS. Media were supplemented with 2 mM GlutaMAX, and 100 U/mL penicillin, 100 μg/mL streptomycin (Life Technologies, Carlsbad, Calif., USA). Cell cultures were maintained at 37° C. in a humidified incubator in an atmosphere of 5% CO2 (Sanyo, Japan).
(§2) For viability assays cells were seeded in 96 well plates (MCF7 and 4T1: 6000, HL60: 120.000 cells/well) and incubated overnight. Compounds were dissolved in dimethyl sulfoxide (DMSO). Cells were treated with an increasing concentration of compounds having the general formula (I.) (156 nM-100 μM). Cell viability was determined after 72h incubation. Resazurin reagent (Sigma-Aldrich) was dissolved in PBS (pH 7.4) at 0.15 mg/ml concentration, sterile filtered (0.22 μm, Merck Millipore) and aliquoted at −20° C. Resazurin reagent (Sigma-Aldrich) was added at a final concentration of 25 μg/ml. After 2 hours incubation at 37° C. 5% CO2 fluorescence (530 nm excitation/580 nm emission) was recorded on a multimode microplate reader (Cytofluor4000, PerSeptive Biosytems). Viability was calculated with relation to untreated control cells and blank wells containing media without cells. IC50 values (50% inhibiting concentration) were calculated by GraphPad Prism® 5 (La Jolla, Calif., USA).
Background: Resazurin is reduced to fluorescent resorufin, in cell work by metabolically active cells.

For data set [2], the system named is human promyelocytic leukemia, HL-60 cells. The data set can be described thus: resazurin viability assay, 72 h (Table 1). The format is cell-based. The settings on record: 72h incubation, 156 nM-100 μM.
From the text: as §1, §2

Data set [3] relates to human breast adenocarcinoma cell line, MCF-7. The data set is described as follows: resazurin viability assay, 72 h (Table 1). Particulars: MCF7, 72h incubation, 156 nM-100 μM. The format is cell-based.
From the text: as §1, §2

The molecule `CC(C)(C)CC(C)(C)Nc1c(C(C)(C)C)[nH]c2c(C(=O)Nc3ccc([N+](=O)[O-])cc3)cnn12` [Example 53, 2-(Tert-butyl)-N-(4-nitrophenyl)-3-((2,4,4-trimethylpentan-2-yl)amino)-1H-imidazo[1,2-b]pyrazole-7-carboxamide] displayed a melting point of 199 °C. The molecule further gave an IC50 in data set [1] of 27.1 µM. In data set [2], this molecule yielded a half-maximal inhibitory concentration (IC50) of 7.64 µM. The same molecule gave an IC50 in data set [3] of 9.94 µM.
For `C/C(=C\c1ccccc1)c1[nH]c2c(C(N)=O)cnn2c1NC(C)(C)C` [Example 15, (E)-3-(Tert-butylamino)-2-(1-phenylprop-1-en-2-yl)-1H-imidazo[1,2-b]pyrazole-7-carbox-amide], in that order: 190 to 191 °C, above 50 µM, 29.2 µM and above 50 µM.
For `CC(C)(C)CC(C)(C)Nc1c(C(C)(C)C)[nH]c2c(C(=O)Nc3cccc(C(F)(F)F)c3)cnn12` [Example 46, 2-(Tert-butyl)-N-(3-(trifluoromethyl)phenyl)-3-((2,4,4-trimethylpentan-2-yl)amino)-1H-imidazo[1,2-b]pyrazole-7-carboxamide], in that order: 180 °C, 35.4 µM, 11.4 µM and above 50 µM.
For `CC(C)(C)CC(C)(C)Nc1c(C(C)(C)C)[nH]c2c(C(=O)Nc3ccc(F)c(F)c3)cnn12` [Example 59, 2-(Tert-butyl)-N-(3,4-difluorophenyl)-3-((2,4,4-trimethylpentan-2-yl)amino)-1H-imidazo[1,2-b]pyrazole-7-carboxamide], in that order: 162 to 164 °C, 19 µM, 2.41 µM and 10.3 µM.
For the molecule `Cc1ccc(-c2[nH]c3c(C(N)=O)cnn3c2NC(C)(C)CC(C)(C)C)cc1` [Example 6, 2-(p-Tolyl)-3-((2,4,4-trimethylpentan-2-yl)amino)-1H-imidazo[1,2-b]pyrazole-7-carbox-amide], the melting point lay in the range of 218 to 219 °C. Further, half-maximal inhibition in data set [1] (IC50) was put at 12.3 µM. This molecule also came in with an IC50 in data set [2] of 12.6 µM. Further, in data set [3], 17 µM corresponded to half-maximal inhibition (IC50).
For `CC(C)(C)CC(C)(C)Nc1c(C(C)(C)C)[nH]c2c(C(=O)Nc3cccnc3)cnn12` [Example 36, 2-(Tert-butyl)-N-(pyridin-3-yl)-3-((2,4,4-trimethylpentan-2-yl)amino)-1H-imidazo[1,2-b]pyrazole-7-carboxamide], in that order: 186 to 187 °C, 2.59 µM, 0.934 µM and 1.9 µM.
For `CC(C)(C)CC(C)(C)Nc1c(C(C)(C)C)[nH]c2c(C(=O)Nc3ccc(C(F)(F)F)cc3)cnn12` [Example 47, 2-(Tert-butyl)-N-(4-(trifluoromethyl)phenyl)-3-((2,4,4-trimethylpentan-2-yl)amino)-1H-imidazo[1,2-b]pyrazole-7-carboxamide], in that order: 155 to 156 °C, above 50 µM, above 50 µM and 29 µM.
Take `CSc1ccc(NC(=O)c2cnn3c(NC(C)(C)CC(C)(C)C)c(C(C)(C)C)[nH]c23)cc1` [Example 56, 2-(Tert-butyl)-N-(4-(methylthio)phenyl)-3-((2,4,4-trimethylpentan-2-yl)amino)-1H-imidazo[1,2-b]pyrazole-7-carboxamide]: the melting point was in the range of 169 to 170 °C. For the same molecule, in data set [1], the half-inhibitory concentration (IC50) was above 50 µM. This molecule also had an IC50 in data set [2] of 3.93 µM. This molecule also registered a half-maximal inhibitory concentration (IC50) in data set [3] of 21.9 µM.
Molecule `COc1ccc(Nc2c(C(C)(C)C)[nH]c3c(C(N)=O)cnn23)cc1` [Example 20, 2-(Tert-butyl)-3-((4-methoxyphenyl)amino)-1H-imidazo[1,2-b]pyrazole-7-carboxamide] came in with a melting point of 260 to 262 °C. In addition, the IC50 in data set [1] is above 50 µM. The IC50 in data set [2] is 8.8 µM. In addition, in data set [3], the IC50 is above 50 µM.
`C=CCC(C)(C)c1[nH]c2c(C(N)=O)cnn2c1NC(C)(C)CC(C)(C)C` [Example 26, 2-(2-Methylpent-4-en-2-yl)-3-((2,4,4-trimethylpentan-2-yl)amino)-1H-imidazo[1,2-b]pyrazole-7-carboxamide]: the melting point lay within 161 to 163 °C. Moreover, the IC50 in data set [1] stood at 9.95 µM. Besides, the IC50 in data set [2] worked out at 1.37 µM. Also, the IC50 in data set [3] came to 8.29 µM.
For `CC(C)c1[nH]c2c(C(N)=O)cnn2c1NC(C)(C)CC(C)(C)C` [Example 25, 2-Isopropyl-3-((2,4,4-trimethylpentan-2-yl)amino)-1H-imidazo[1,2-b]pyrazole-7-carbox-amide], in that order: 132 to 134 °C, 3.63 µM, 7.79 µM and 10.6 µM.
For `CC(C)(C)c1[nH]c2c(C(N)=O)cnn2c1NC1CCCCC1` [Example 18, 2-(Tert-butyl)-3-(cyclohexylamino)-1H-imidazo[1,2-b]pyrazole-7-carboxamide], in that order: 148 to 149 °C, 4.24 µM, 2.95 µM and 4.07 µM.
For `CC(C)(C)Nc1c(C(C)(C)C)[nH]c2c(C(N)=O)cnn12` [Example 19, 2-(Tert-butyl)-3-(tert-butylamino)-1H-imidazo[1,2-b]pyrazole-7-carboxamide], in that order: 221 °C, 23.9 µM, 4.99 µM and 27.9 µM.
`COC(=O)CNc1c(-c2ccc(F)cc2)[nH]c2c(C(N)=O)cnn12` [Example 11, Methyl 2-((7-carbamoyl-2-(4-fluorophenyl)-1H-imidazo[1,2-b]pyrazol-3-yl)amino)acetate]: the melting point lay within 229 to 230 °C. The molecule also yielded an IC50 in data set [1] above 50 µM. In data set [2], the IC50 came to 15.9 µM. Further, in data set [3], the IC50 was above 50 µM.
`CC(C)(C)CC(C)(C)Nc1c(C(C)(C)C)[nH]c2c(C(=O)Nc3ccc(F)cc3)cnn12` [Example 50, 2-(Tert-butyl)-N-(4-fluorophenyl)-3-((2,4,4-trimethylpentan-2-yl)amino)-1H-imidazo[1,2-b]pyrazole-7-carboxamide] returned a melting point of 188 °C. In addition, the midpoint of inhibition in data set [1], the IC50, lay at 7.43 µM. The molecule further showed an IC50 in data set [2] of 0.183 µM. For the same molecule, the concentration for half-maximal inhibition (IC50) in data set [3] came out at 2.35 µM.
For `CC(C)(C)CC(C)(C)Nc1c(C2CC2)[nH]c2c(C(N)=O)cnn12` [Example 23, 2-Cyclopropyl-3-((2,4,4-trimethylpentan-2-yl)amino)-1H-imidazo[1,2-b]pyrazole-7-carboxamide], in that order: 205 to 207 °C, above 50 µM, 5.49 µM and above 50 µM.
For `CC(C)(C)CC(C)(C)Nc1c(C(C)(C)C)[nH]c2c(C(=O)Nc3ccc(Br)cc3)cnn12` [Example 52, N-(4-Bromophenyl)-2-(tert-butyl)-3-((2,4,4-trimethylpentan-2-yl)amino)-1H-imidazo[1,2-b]pyrazole-7-carboxamide], in that order: 153 to 154 °C, above 50 µM, 19.7 µM and above 50 µM.

As a reminder, the IC50 is the concentration that gives 50% inhibition. A lower IC50 goes with greater potency. One may read the melting point as the temperature of the solid-liquid transition.
